Laboratory results as given in US20090280096A1, “PANCREATIC ENDOCRINE PROGENITOR CELLS DERIVED FROM PLURIPOTENT STEM CELLS” (priority 2008, published 2009).

Experiments:
[1] = test system: pancreatic EBs induced by Pdx1 and Ngn3 (Tet-pdx1/ngn3 ES cells); experiment: C-peptide secretion assay (RIA) of EBs stimulated with secretagogues; assay type: cell-based, mouse; details: floating EBs with Dox, SFD without N2 and RA, stimulated 1 hour in HKRB buffer; for response of C-peptide secretion to stimulation: glucose 20 mM, tolbutamide 100 μM; for stimulation of C-peptide secretion: KCl 30 mM, Forskolin 10 μM, IBMX 0.5 mM
Description: Tet-pdx1/ngn3 ES cells were cultured in SFD conditions. Pdx1 and Ngn3 expression was induced with (Dox+) or without (Dox−) Dox after day 4, and cells were harvested at the indicated time points. (A) CXCR4/c-kit^−/− or CXCR4/c-kit^+/+ cells were sorted in day 4 EBs by using a FACS sorter. Sorted cells were reaggregated and replated at day 6 on gelatin coated plates. EBs were harvested at day 9. Ins1 mRNA levels were quantified by real time PCR and normalized to the 18S mRNA levels. (B) N2 media was added to or omitted from the SFD media for days 0-14. B27, with or without retinoic acid (RA), was combined in SFD for days 0-4 and for day 4-14 (also +/−N2). Ins1 mRNA levels were quantified by real time PCR and normalized to the 18S mRNA levels. (C) Tet-pdx1/ngn3 ES cells were cultured in SFD condition without N2 and RA for 18 days. Cytoplasmic insulin was stained and analyzed by FACS. (D) Floating EBs were cultured in SFD without N2 and RA for 18 days, with or without Dox. EBs were incubated in SFD without N2 and RA for 24 hours and supernatants were harvested. C-peptide, glucagon and somatostatin were measured by RIA or EIA. (E) Floating EBs were cultured in SFD without N2 and RA for 19 days and then were unstimulated or stimulated with KCl (3 or 30 mM), glucose (20 mM), tolbutaminde (100 μM), Forskolin (10 μM) or IBMX (0.5 mM) in HKRB buffer for 1 hour. Supernatants were harvested and C-peptide was measured by RIA.
After culturing EBs for 17-18 days in SFD conditions without N2 and RA with or without Dox (1 μg/ml) as described above, the medium was changed to fresh SFD media containing 2 mM glutamine. The EBs were then incubated for 24 hours as indicated, and the conditioned medium was collected for assay. Concentrations of glucagon and somatostatin in the conditioned medium were measured using enzyme immunoassays (EIAs) specific to glucagon (Yanaihara) or somatostatin (Phoenix Pharmaceuticals) according the manufacturer's instructions. C-peptide was measured by radioimmunoassay (RIA) specific to C-peptide (Linco). For C-peptide secretion assay, day 18 EBs were washed with media were incubated in HEPES-balanced Krebs-Ringer bicarbonate (HKRB) buffer (20 mM HEPES, 103 mM NaCl, 4.8 mM KCl, 0.5 mM CaCl2, 1.2 mM MgSO4, 1.2 mM KH2PO4, 25 mM NaHCO3, 2 mM glucose, pH 7.4) with or without stimulations for 1 hour. C-peptide in the supernatant was measured by a specific RIA. Total protein amounts of EBs in each sample were evaluated by BCA assay and secretion levels for C-peptide, glucagons and somatostatin were adjusted by protein amount.
To evaluate pancreatic hormone secretion, pancreatic EBs were cultured in SFD without N2 and RA for 16-18 days and then EBs were incubated in fresh SFD media for 24 hours. The secretion of pancreatic hormones such as C-peptide, glucagon and somatostatin in the supernatant was evaluated by RIA or EIA. C-peptide, somatostatin and glucagons were not detected in EBs without Dox stimulation. […] Stimulation of C-peptide secretion by treating endocrine progenitor cells with different agents for one hour was also evaluated (FIG. 6E). C-peptide secretion increased around five fold by the addition of 30 mM potassium chloride (KCl). Forskolin and IBMX, which increase intracellular cAMP, also stimulated C-peptide secretion around 2 fold and 3 fold, respectively. No response to glucose or the inhibitors of KATP channel, glibenclamide and tolbutamide, was detected.

[2] = test system: Ins1 mRNA in Tet-pdx1/ngn3 Ainv ES cell-derived EBs; experiment: Ins1 mRNA by real time PCR in EBs cultured in SFD conditions; assay type: cell-based, mouse; details: BMP4 (50 ng/ml) for days 4-6 with Dox, EBs harvested at day 9
Description: Tet-pdx1/ngn3 ES cells were cultured in SFD conditions. Pdx1 and Ngn3 expression was induced with (Dox+) or without (Dox−) Dox after day 4 and cells were harvested at the indicated time points. (A, B) Ins1 mRNA levels were quantified by a real time PCR and normalized to the 18S mRNA levels. A. Day 4 EBs were trypsinized and reaggregated with (closed circles) or without BMP4 (open squares) for days 4-6. EBs were harvested at days 6 and 9. B. At day 6, EBs were replated on gelatin coated dishes and floating EBs were transferred to low-cluster dishes at day 7. Attached monolayer EBs (open bars) and floating EBs (closed bars) were harvested at day 9. (C, D) Floating EBs were cultured in SFD conditions with (closed circles) or without (open squares) Dox. Ins1 (C) or Ins2 (D) mRNA levels were quantified by a real time PCR and normalized to the 18S mRNA levels.
For a real time PCR, commercially available assay mixes (Applied Biosystems) for Ins1 (Mm01259683_g1), Ins2 (Mm0731595_gH) and 18S (Hs99999901_s1) were used to quantify mRNA levels, and PCR was performed using a Prism 7700 Sequence Detector (Applied Biosystems). […]
Tet-pdx1/ngn3 Ainv ES cells were cultured in SFD for 2 days and then activin was added for days 2-4 to induce endoderm differentiation. […] Without Dox treatment, Ins1 mRNA was not detected at day 6 or day 9. […]

| Molecule | response of C-peptide secretion to stimulation [1] | stimulation of C-peptide secretion [1] | other results |
| --- | --- | --- | --- |
| CCCCNC(=O)NS(=O)(=O)c1ccc(C)cc1 [tolbutamide] | No response | – | – |
| COc1ccc(Cl)cc1C(=O)NCCc1ccc(S(=O)(=O)NC(=O)NC2CCCCC2)cc1 [glibenclamide] | No response | – | – |
| [Cl-].[K+] [KCl, potassium chloride] | – | around five | – |
| C=C[C@@]1(C)CC(=O)[C@]2(O)[C@@]3(C)[C@@H](O)CCC(C)(C)[C@@H]3[C@H](O)[C@H](OC(C)=O)[C@@]2(C)O1 [Forskolin] | – | around 2 fold | – |
| CC(C)Cn1c(=O)n(C)c(=O)c2[nH]cnc21 [IBMX] | – | ~3 fold | – |
| BMP4: growth factor BMP-4 (R&D Systems) added to SFD medium days 4-6 (protein, UniProt P12644 293-408, looked up) Bone morphogenetic protein 4: SPKHHSQRARKKNKNCRRHSLYVDFSDVGWNDWIVAPPGYQAFYCHGDCPFPLADHLNSTNHAIVQTLVNSVNSSIPKACCVPTELSAISMLYLDEYDKVVLKNYQEMVVEGCGCR | – | – | Ins1 mRNA level normalized to 18S mRNA [2]: 3.1 % of βTC6 |
